One experiment has as its target mTOR (Homo sapiens, UniProt P42345). As to conditions: cell-free assays; cited from earlier work.
The test system of experiment [1] is ERK activation/phosphorylation in cells expressing WT and mutant BRAF or PTPN11. Description: pERK levels in Ea.hy926 cells expressing WT and mutant BRAF or PTPN11, MEK inhibitor titration. In kind it is cell-based, human. As to conditions: cells expressing WT and mutant BRAF or PTPN11, FIGS. 4 and 5. From the text:
A cellular model for studying the effects of potential ERK-activating mutations was developed. We have retrovirally expressed wild-type and mutant versions of proteins in the cell line Ea.hy926. The Ea.hy926 cell line is a fusion of human umbilical vein endothelial cells with a […] cell line. It is immortalized and retains some characteristics of endothelial cells.
In an effort to identify inhibitors with greater therapeutic efficacy, we have treated cells expressing WT and mutant BRAF or PTPN11 with various MEK inhibitors. […] BRAF F486S consistently induces ERK activation over WT levels, although the specific fold increase varies from gel to gel.

In experiment [2] the test system is HDLECs expressing ARAF mutation S214P. Nature of the experiment: Immunofluorescence staining and western blotting of HDLECs expressing ARAF-S214P. Format: cell-based, human. As to conditions: for biochemical and morphological reversal of the effects induced by the ARAF mutation / cell morphological differences induced by ARAF-S214P: HDLECs; for VE-cadherin accumulation at the cell membrane / levels of pERK: HDLECs expressing ARAF-S214P. From the text: We developed a cellular model to better understand and study the effects of potential ERK-activating mutations was developed by using primary lymphatic endothelial cells instead of established cell lines to capture the characteristics of mutations in the disease relevant cell type. We have retrovirally expressed wild-type and mutant versions of proteins in the human dermal lymphatic endothelial cells (HDLECs).
The ARAF sequence, from pCDNA3.1-F2S2-ARAF-WT or -S214P constructs as previously indicated, was cut with BamHI/XhoI and introduced into the BglII/XhoI sites of a modified version of the pMSCV plasmid that contains aminoterminal FLAG and HA tags. Viral production was performed using Fugene, with 8 μg of total DNA (pMSCV-ARAF-WT or -S214P together with envelope and packaging plasmids) and 18 μl of the transfection reagent in HEK293T. After 72 h, viral supernatant was collected and filtered. HDLECs were infected by replacing the cell culture medium with the viral supernatant, supplemented with 8 μg ml^−1 Polybrene and filtered through a 0.45 μm filter. Cells were spinfected at 650 g for 90 min, and subsequently cultured for 6 h at which point the viral supernatant was replaced by standard culture medium. Transduced HDLECs were cultured for 48 h before use in experiments. Transduction efficiencies observed by HA staining were between 40% and 60%.
Round (12 mm) coverslips (VWR) were coated with 0.1% gelatin in water for 10 min in 24-well plates (Corning), and then air-dried for 15 min. […] Cells were washed in warm serum-free Dulbecco's modified Eagle's medium and fixed in 4% paraformaldehyde. Fixed cells were washed twice with PBS and twice with 0.1% BSA in PBS. Cells were permeablized and blocked by incubation with 10% normal donkey serum (Jackson Immunoresearch) and 0.3% Triton X-100 (Sigma Aldrich) in PBS. VE-cadherin antibody (Thermo Fisher Scientific) was diluted (final concentration: 2 μg ml^−1) in 0.01% normal donkey serum, 0.1% BSA and 0.3% Triton X-100 in PBS, and staining was performed for 1 h. Coverslips were washed twice with 0.1% BSA in PBS. Goat-anti-rabbit Alexa546 (Thermo Fisher Scientific; final concentration: 8 μg ml-1) and phalloidin Alexa350 (Thermo Fisher Scientific; final concentration: 5 units ml-1) were diluted in 0.01% normal donkey serum, 0.1% BSA and 0.3% Triton X-100 in PBS, and staining was performed for 1 h. When used, HA-Tag (6E2) mouse antibody (cat. no. 2367, Cell Signaling Technology) was diluted 1:100 in 0.1% BSA and 0.3% Triton X-100 in PBS, and staining was performed for 1 h. Coverslips were washed twice with 0.1% BSA in PBS and twice with PBS. Coverslips were dipped in water to remove residual salts, and mounted to slides using Prolong Gold antifade reagent (Thermo Fisher Scientific). Image acquisition was performed on a Leica DM6000 motorized upright microscope with a Photometrics HQ2 high-resolution monochrome CCD (charge-coupled device) camera using LAS AF software (Leica Microsystems). Z-stacks were acquired at ×10 magnification. Images were further processed in the Fiji software package42. Brightness and contrast adjustments were made. Identical brightness and contrast settings were applied to all images. Fluorescence values were measured in regions of interest (ROIs) drawn to contain entire individual cells, or in ROIs drawn to contain the entire cell body but exclude the cell-cell junction. From those measured values, a value for the plasma membrane was derived (total cell-intracellular), and the ratio of plasma membrane to intracellular values was derived and plotted. Additionally, the length and width of cells were measured with the line tool and ROI manager. For both analyses, five clearly ARAF-expressing cells, as determined by HA staining, were analyzed per ×10 field. Five ×10 fields were acquired per condition per experiment. Experiments were conducted with cells from 3 independent thaws and transductions of HDLECs, for a total of 75 cells per condition. […]

For experiment [3], the system named is zebrafish larvae overexpressing KRAS-G12D mutant in lymphatics. Description: Zebrafish model overexpressing KRAS-G12D in lymphatics. As to conditions: FIG. 19. In kind it is in vivo.
For a further experiment, the system named is ERK1/2 phosphorylation. The settings on record: more potent than CI-1040; cited from earlier work.
Another experiment concerns MM cell lines. The settings on record: units printed inside the range; cited from earlier work.
For experiment [4], the system named is Abl1, AKT3, c-RAF, CamK1, CDK2, c-Met. The settings on record: cited from earlier work.

The values below come from patent publication US12365946B2, “Compositions and methods for the diagnosis and treatment of lymphatic system disorders” (THE CHILDREN'S HOSPITAL OF PHILADELPHIA, priority 2018, dated 2025).

The structures appear in SMILES notation.

As for `CO[C@H]1C[C@@H]2CC[C@@H](C)[C@@](O)(O2)C(=O)C(=O)N2CCCC[C@H]2C(=O)O[C@H]([C@H](C)C[C@@H]2CC[C@@H](OCCO)[C@H](OC)C2)CC(=O)[C@H](C)/C=C(\C)[C@@H](O)[C@@H](OC)C(=O)[C@H](C)C[C@H](C)/C=C/C=C/C=C/1C` [Everolimus (RAD001), Everolimus], on mTOR, the IC50 (as a rule, the concentration needed to halve the response being measured) was 1.6 to 2.4 nM.
On to `O=C(NOC[C@H](O)CO)c1ccc(F)c(F)c1Nc1ccc(I)cc1F` [PD0325901], for which, in experiment [1], the “pERK levels, titration curves” value is on record as “reducing pERK levels in cells in a dose dependent manner”. In experiment [2], the “biochemical and morphological reversal of the effects induced by the ARAF mutation” value (from here on “biochemical and morphological reversal”) is on record as “reversal”; the “cell morphological differences induced by ARAF-S214P” value is “rescued”; the “VE-cadherin accumulation at the cell membrane” value (shortened to “VE-cadherin accumulation”) is “increased”; the “levels of pERK” value is recorded as “reduced”. Besides, in experiment [3], the disorganized lymphatic branching result was “improvement” and the edema entry was “decrease”. Also, the “potency relative to CI-1040 on phosphorylation of ERK1 and ERK2” value in the experiment with ERK1/2 phosphorylation was “assays, roughly 500-fold more”.
Take `O=C(NC[C@H](O)CO)c1ccncc1Nc1ccc(I)cc1F` [Pimasertib (AS-703026), Pimasertib]: the “pERK levels, titration curves” value in experiment [1] is recorded as “reducing pERK levels in cells in a dose dependent manner”. In addition, in experiment [2], the “biochemical and morphological reversal” value is reported as “reversal”; the “cell morphological differences induced by ARAF-S214P” value is listed as “rescued”; the “VE-cadherin accumulation” value was “increased”; the “levels of pERK” value was “reduced”. Further, in experiment [3], the disorganized lymphatic branching entry is “improvement” and the edema entry is given as “decrease”. Moreover, the IC50 with MM cell lines is 5 to 2000 nM.
Consider `Cn1c(=O)c(F)c(Nc2ccc(I)cc2F)c2c(=O)n(C[C@@H](O)CO)cnc21` [TAK-733], for which, in experiment [2], the “biochemical and morphological reversal” value is “reversal”; the “cell morphological differences induced by ARAF-S214P” value is “rescued”; the “VE-cadherin accumulation” value is recorded as “increased”; the “levels of pERK” value is recorded as “reduced”. Besides, in experiment [3], the disorganized lymphatic branching entry is given as “improvement” and the edema result is recorded as “decrease”. In addition, the “activity to Abl1, AKT3, c-RAF, CamK1, CDK2, c-Met, etc.” value in experiment [4] is “inactive to Abl1, AKT3, c-RAF,”.
